Laboratory results reported in ChEMBL document CHEMBL5113452, “Synthesis and biological evaluation of hybrids from optically active ring-opened 3-N-butylphthalide derivatives and 4-fluro-edaravone as potential anti-acute ischemic stroke agents” (Bioorg Med Chem, 2022).
Activity calls are given as the source filed them. No cut-off for these calls is given here.

Tests used:
Rattus norvegicus [1] = assay: Neuroprotective activity against transient middle cerebral artery occlusion induced ischemia stroke Sprague-Dawley rat model assessed as increase in neuro-fucntional score at 10 mg/kg, iv and measured after 24 hrs by longa's method; format: functional, organism-based
Rattus norvegicus [2] = assay: Neuroprotective activity against transient middle cerebral artery occlusion induced cerebral infraction Sprague-Dawley rat model assessed as decrease in cerebral infraction volume at 10 mg/kg, iv and measured after 24 hrs by TTC staining based assay; format: functional; set-up: scale not given: the % may be the effect or the level left
[3] = Toxicity in transient middle cerebral artery occlusion induced ischemia stroke Sprague-Dawley rat model assessed as change in body weight at 10 mg/kg, iv and measured after 24 hrs; format: organism-based; details: in vivo
Rattus norvegicus [4] = assay: Neuroprotective activity against transient middle cerebral artery occlusion induced cerebral ischemia Sprague-Dawley rat model assessed as decrease in infract volume at 140 mg/kg, po and measured after 24 hrs by TTC staining based assay; format: functional; set-up: scale not given: the % may be the effect or the level left
Rattus norvegicus [5] = assay: Neuroprotective activity against transient middle cerebral artery occlusion induced cerebral ischemia Sprague-Dawley rat model assessed as decrease in infract volume at 70 mg/kg, po and measured after 24 hrs by TTC staining based assay; format: functional; set-up: scale not given: the % may be the effect or the level left
Rattus norvegicus [6] = assay: Neuroprotective activity against transient middle cerebral artery occlusion induced cerebral infraction Sprague-Dawley rat model assessed as decrease in brain edema at 10 mg/kg, iv and measured after 24 hrs; format: functional
[7] = Clearance in Sprague-Dawley rat plasma at 4.48 mg/kg, iv and measured upto 24 hrs in presence of 4-F-Eda by LC-MS/MS analysis; format: ADME, organism-based
[8] = AUC (0-t) in Sprague-Dawley rat plasma at 4.48 mg/kg, iv and measured upto 24 hrs by LC-MS/MS analysis; format: ADME, organism-based; set-up: time < 24 hrs, dose 4.48 mg/kg, route iv
[9] = Elimination rate constant in Sprague-Dawley rat plasma at 4.48 mg/kg, iv and measured upto 24 hrs in presence of 4-F-Eda by LC-MS/MS analysis; format: ADME, organism-based
Rattus norvegicus [10] = assay: Neuroprotective activity against transient middle cerebral artery occlusion induced ischemia stroke Sprague-Dawley rat model assessed as increase in neuro-fucntional score at 4.48 mg/kg, iv and measured after 24 hrs in presence of Eda by longa's method; format: functional, organism-based
[11] = AUMC (0-infinity) in Sprague-Dawley rat plasma at 4.48 mg/kg, iv and measured upto 24 hrs by LC-MS/MS analysis; format: ADME, organism-based; details: in vivo
[12] = AUMC (0-t) in Sprague-Dawley rat plasma at 4.48 mg/kg, iv and measured upto 24 hrs by LC-MS/MS analysis; format: ADME, organism-based; details: in vivo
[13] = Half life in Sprague-Dawley rat plasma at 4.48 mg/kg, iv and measured upto 24 hrs in presence of 4-F-Eda by LC-MS/MS analysis; format: ADME, organism-based
[14] = AUC (0-infinity) in Sprague-Dawley rat plasma at 4.48 mg/kg, iv and measured upto 24 hrs in presence of 4-F-Eda by LC-MS/MS analysis; format: ADME, organism-based; set-up: dose 4.48 mg/kg, time < 24 hrs, route iv
[15] = MRT in Sprague-Dawley rat plasma at 4.48 mg/kg, iv and measured upto 24 hrs by LC-MS/MS analysis; format: ADME, organism-based
[16] = C0 in Sprague-Dawley rat plasma at 4.48 mg/kg, iv and measured upto 24 hrs in presence of 4-F-Eda by LC-MS/MS analysis; format: ADME, organism-based
[17] = AUC (0-t) in Sprague-Dawley rat plasma at 4.48 mg/kg, iv and measured upto 24 hrs in presence of 4-F-Eda by LC-MS/MS analysis; format: ADME, organism-based; set-up: time < 24 hrs, dose 4.48 mg/kg, route iv
[18] = Toxicity in transient middle cerebral artery occlusion induced ischemia stroke Sprague-Dawley rat model assessed as change in body weight at 4.48 mg/kg, iv and measured after 24 hrs in presence of EDA; format: organism-based; details: in vivo
Rattus norvegicus [19] = assay: Neuroprotective activity against transient middle cerebral artery occlusion induced cerebral infraction Sprague-Dawley rat model assessed as decrease in brain edema at 4.48 mg/kg, iv and measured after 24 hrs in presence of EDA; format: functional, organism-based
[20] = Volume of distribution at steady state in Sprague-Dawley rat plasma at 4.48 mg/kg, iv and measured upto 24 hrs in presence of 4-F-Eda by LC-MS/MS analysis; format: ADME, organism-based; details: read-out: Vdss
[21] = Half life in Sprague-Dawley rat plasma at 4.48 mg/kg, iv and measured upto 24 hrs by LC-MS/MS analysis; format: ADME, organism-based
[22] = Elimination rate constant in Sprague-Dawley rat plasma at 4.48 mg/kg, iv and measured upto 24 hrs by LC-MS/MS analysis; format: ADME, organism-based
[23] = MRT in Sprague-Dawley rat plasma at 4.48 mg/kg, iv and measured upto 24 hrs in presence of 4-F-Eda by LC-MS/MS analysis; format: ADME, organism-based
Rattus norvegicus [24] = assay: Neuroprotective activity against transient middle cerebral artery occlusion induced cerebral infraction Sprague-Dawley rat model assessed as decrease in cerebral infraction volume at 4.48 mg/kg, iv and measured after 24 hrs in presence of EDA by TTC staining based assay; format: functional; set-up: scale not given: the % may be the effect or the level left
[25] = AUC (0-infinity) in Sprague-Dawley rat plasma at 4.48 mg/kg, iv and measured upto 24 hrs by LC-MS/MS analysis; format: ADME, organism-based; set-up: time < 24 hrs, dose 4.48 mg/kg, route iv
[26] = Clearance in Sprague-Dawley rat plasma at 4.48 mg/kg, iv and measured upto 24 hrs by LC-MS/MS analysis; format: ADME, organism-based
[27] = Volume of distribution at steady state in Sprague-Dawley rat plasma at 4.48 mg/kg, iv and measured upto 24 hrs by LC-MS/MS analysis; format: ADME, organism-based; details: read-out: Vdss
[28] = Cmax in Sprague-Dawley rat plasma at 4.48 mg/kg, iv and measured upto 24 hrs in presence of 4-F-Eda by LC-MS/MS analysis; format: ADME, organism-based; set-up: time < 24 hrs, dose 4.48 mg/kg, route iv
[29] = AUMC (0-t) in Sprague-Dawley rat plasma at 4.48 mg/kg, iv and measured upto 24 hrs in presence of 4-F-Eda by LC-MS/MS analysis; format: ADME, organism-based; details: in vivo
[30] = Cmax in Sprague-Dawley rat plasma at 4.48 mg/kg, iv and measured upto 24 hrs by LC-MS/MS analysis; format: ADME, organism-based; set-up: dose 4.48 mg/kg, time < 24 hrs, route iv
[31] = C0 in Sprague-Dawley rat plasma at 4.48 mg/kg, iv and measured upto 24 hrs by LC-MS/MS analysis; format: ADME, organism-based
[32] = AUMC (0-infinity) in Sprague-Dawley rat plasma at 4.48 mg/kg, iv and measured upto 24 hrs in presence of 4-F-Eda by LC-MS/MS analysis; format: ADME, organism-based; details: in vivo
Rattus norvegicus [33] = assay: Neuroprotective activity against transient middle cerebral artery occlusion induced cerebral infraction Sprague-Dawley rat model assessed as decrease in cerebral infraction volume at 5.9 mg/kg, iv and measured after 24 hrs by TTC staining based assay; format: functional; set-up: scale not given: the % may be the effect or the level left
Rattus norvegicus [34] = assay: Neuroprotective activity against transient middle cerebral artery occlusion induced cerebral infraction Sprague-Dawley rat model assessed as decrease in cerebral infraction volume at 5.9 mg/kg, iv and measured after 24 hrs in presence of 4-F-Eda by TTC staining based assay; format: functional; set-up: scale not given: the % may be the effect or the level left
[35] = Toxicity in transient middle cerebral artery occlusion induced ischemia stroke Sprague-Dawley rat model assessed as change in body weight at 5.90 mg/kg, iv and measured after 24 hrs; format: organism-based; details: in vivo, 5.9 mg/kg
Rattus norvegicus [36] = assay: Neuroprotective activity against transient middle cerebral artery occlusion induced ischemia stroke Sprague-Dawley rat model assessed as increase in neuro-fucntional score at 5.9 mg/kg, iv and measured after 24 hrs in presence of 4-F-Eda by longa's method; format: functional, organism-based
Rattus norvegicus [37] = assay: Neuroprotective activity against transient middle cerebral artery occlusion induced cerebral infraction Sprague-Dawley rat model assessed as decrease in brain edema at 5.9 mg/kg, iv and measured after 24 hrs in presence of 4-F-Eda; format: functional, organism-based
Rattus norvegicus [38] = assay: Neuroprotective activity against transient middle cerebral artery occlusion induced ischemia stroke Sprague-Dawley rat model assessed as increase in neuro-fucntional score at 5.9 mg/kg, iv and measured after 24 hrs by longa's method; format: functional, organism-based
[39] = Toxicity in transient middle cerebral artery occlusion induced ischemia stroke Sprague-Dawley rat model assessed as change in body weight at 5.90 mg/kg, iv and measured after 24 hrs in presence of 4-F-Eda; format: organism-based; details: in vivo, 5.9 mg/kg

Which Activity (Rattus norvegicus [1]) does the source give for `CCCCC(OC(C)=O)c1ccccc1C(=O)Oc1cc(C)nn1-c1ccc(F)cc1` (racemic) here?
Its Activity is “Active”.

And the Activity (Rattus norvegicus [2])?
Its Activity is 66.89%.

What about the Activity [3] of the same compound?
The Activity was “Non-Toxic”.

What about the Activity (Rattus norvegicus [4]) of the same compound?
The Activity was 61.77%.

What about the Activity (Rattus norvegicus [5]) of the same compound?
The Activity was 52.8%.

With `CCCC[C@@H](OC(C)=O)c1ccccc1C(=O)Oc1cc(C)nn1-c1ccc(F)cc1` as the compound, how does the Activity (Rattus norvegicus [6]) read?
The Activity was “Active”.

What about the Activity (Rattus norvegicus [1]) of the same compound?
Its Activity is “Active”.

What about the Activity (Rattus norvegicus [2]) of the same compound?
The Activity was 67.56%.

What about the Activity [3] of the same compound?
The Activity was “Non-Toxic”.

With `CCCC[C@@H]1OC(=O)c2ccccc21` [(3S)-BUTYLPHTHALIDE] as the compound, how does the clearance [7] read?
Its clearance is 26.3 mL/min/kg.

What about the AUC(0-t) at 24 h [8] of the same compound?
Its AUC(0-t) at 24 h is 1470 ng·h/mL.

What about the k el at 24 h [9] of the same compound?
The k el at 24 h was 4.06e-05 s⁻¹.

What about the Activity (Rattus norvegicus [10]) of the same compound?
Its Activity is “Active”.

What about the AUMC [11] of the same compound?
The AUMC was 998 hr.hr.ng/ml.

What about the AUMCt [12] of the same compound?
The AUMCt was 943 hr.hr.ng/ml.

And the half-life [13]?
The half-life was 5.05 h.

What about the AUC(0-inf) [14] of the same compound?
Its AUC(0-inf) is 2870 ng·h/mL.

What about the MRT [15] of the same compound?
The MRT was 0.678 h.

And the C0 at 24 h [16]?
The C0 at 24 h was 13000 ng/mL.

And the AUC(0-t) at 24 h [17]?
The AUC(0-t) at 24 h was 2840 ng·h/mL.

What about the Activity [18] of the same compound?
The Activity was “Non-Toxic”.

And the Activity (Rattus norvegicus [19])?
Its Activity is “Active”.

What about the Vd [20] of the same compound?
The Vd was 2.73 L/kg.

What about the half-life [21] of the same compound?
Its half-life is 0.97 h.

What about the k el at 24 h [22] of the same compound?
The k el at 24 h was 0.000202 s⁻¹.

What about the MRT [23] of the same compound?
The MRT was 1.74 h.

What about the Activity (Rattus norvegicus [24]) of the same compound?
Its Activity is 57.7%.

And the AUC(0-inf) [25]?
The AUC(0-inf) was 1480 ng·h/mL.

What about the clearance [26] of the same compound?
Its clearance is 51.1 mL/min/kg.

And the Vd [27]?
Its Vd is 2.08 L/kg.

And the Cmax [28]?
The Cmax was 6920 ng/mL.

What about the AUMCt [29] of the same compound?
The AUMCt was 3819 hr.hr.ng/ml.

And the Cmax [30]?
Its Cmax is 3290 ng/mL.

What about the C0 at 24 h [31] of the same compound?
The C0 at 24 h was 5310 ng/mL.

What about the AUMC [32] of the same compound?
Its AUMC is 5006 hr.hr.ng/ml.

With `CCCC[C@H](OC(C)=O)c1ccccc1C(=O)O` as the compound, how does the Activity (Rattus norvegicus [33]) read?
Its Activity is 12.67%.

What about the Activity (Rattus norvegicus [34]) of the same compound?
The Activity was 68.37%.

And the Activity [35]?
Its Activity is “Non-Toxic”.

What about the Activity (Rattus norvegicus [36]) of the same compound?
Its Activity is “Active”.

And the Activity (Rattus norvegicus [37])?
Its Activity is “Active”.

What about the Activity (Rattus norvegicus [38]) of the same compound?
Its Activity is “Active”.

And the Activity [39]?
The Activity was “Non-Toxic”.
